{"source": "patent US12384797B2", "about": "“Thioeno[3,2-b] pyridin-7-amine compounds for treating familial dysautonomia” (PTC THERAPEUTICS, INC., priority 2019, dated 2025)"}
{"tested_on": "Elongator complex protein 1 (ELP1, also referred to as IKBKAP)", "test": "IKBKAP-HTRF assay (IKBKAP protein in lysates of FD patient-derived fibroblasts)", "type": "cell-based, human", "conditions": "48 hours incubation, 7-point concentration curve", "outline": "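Sandwich HTRF with two labelled anti-IKAP antibodies (overnight, 4 °C) measured IKBKAP in lysates of FD patient fibroblasts. Cells were exposed to compound for 48 h at 37 °C (7-point curve, 3.16-fold steps, triplicates). EC2x is the dose doubling IKBKAP versus DMSO control; MFI is sample ΔF divided by vehicle ΔF.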"}
{"compound": "N[C@H](Cc1sc2c(NCc3cccs3)cc(Cl)nc2c1Br)CC(F)F", "note": "[Compound 107, 2-[(2S)-2-amino-4,4-difluorobutyl]-3-bromo-5-chloro-N-[(thiophen-2-yl)methyl]thieno[3,2-b]pyridin-7-amine]", "EC2x for IKBKAP protein expression (concentration producing two times the amount of IKBKAP protein vs DMSO vehicle control)": "***** (≤0.005 μM is indicated by five stars (*****))", "MFI (maximum fold increase in IKBKAP protein abundance relative to the vehicle control)": "***** (>4.9 is indicated by five stars (*****))"}
{"compound": "N#CC[C@H](N)Cc1sc2c(NCc3cccs3)cc(Cl)nc2c1Cl", "note": "[Compound 106, (3S)-3-amino-4-(3,5-dichloro-7-{[(thiophen-2-yl)methyl]amino}thieno[3,2-b]pyridin-2-yl)butanenitrile]", "EC2x for IKBKAP protein expression (concentration producing two times the amount of IKBKAP protein vs DMSO vehicle control)": "***** (≤0.005 μM is indicated by five stars (*****))", "MFI (maximum fold increase in IKBKAP protein abundance relative to the vehicle control)": "***** (>4.9 is indicated by five stars (*****))"}
{"compound": "Cc1cc(NCc2nccs2)c2scc(Cl)c2n1", "note": "[Compound 10, 3-chloro-5-methyl-N-[(1,3-thiazol-2-yl)methyl]thieno[3,2-b]pyridin-7-amine]", "EC2x for IKBKAP protein expression (concentration producing two times the amount of IKBKAP protein vs DMSO vehicle control)": "* (An EC2x>1 μM is indicated by one star (*))", "MFI (maximum fold increase in IKBKAP protein abundance relative to the vehicle control)": "* (An MFI≤1.9 is indicated by one star (*))"}
{"compound": "Cc1c([C@H](C)N)sc2c(NCc3ccco3)cc(Cl)nc12", "note": "[Compound 21, 2-[(1S)-1-aminoethyl]-5-chloro-N-[(furan-2-yl)methyl]-3-methylthieno[3,2-b]pyridin-7-amine]", "EC2x for IKBKAP protein expression (concentration producing two times the amount of IKBKAP protein vs DMSO vehicle control)": "**** (between >0.005 μM and ≤0.02 μM is indicated by four stars (****))", "MFI (maximum fold increase in IKBKAP protein abundance relative to the vehicle control)": "**** (between >3.9 and ≤4.9 is indicated by four stars (****))"}
{"compound": "N[C@@H](CCO)Cc1sc2c(NCc3nccs3)cc(Cl)nc2c1Cl", "note": "[Compound 48, (3S)-3-amino-4-(3,5-dichloro-7-{[(1,3-thiazol-2-yl)methyl]amino}thieno[3,2-b]pyridin-2-yl)butan-1-ol]", "EC2x for IKBKAP protein expression (concentration producing two times the amount of IKBKAP protein vs DMSO vehicle control)": "***** (≤0.005 μM is indicated by five stars (*****))", "MFI (maximum fold increase in IKBKAP protein abundance relative to the vehicle control)": "***** (>4.9 is indicated by five stars (*****))"}
{"compound": "N[C@@H](CO)Cc1sc2c(NCc3nccs3)cc(Cl)nc2c1Br", "note": "[Compound 71, (2R)-2-amino-3-(3-bromo-5-chloro-7-{[(1,3-thiazol-2-yl)methyl]amino}thieno[3,2-b]pyridin-2-yl)propan-1-ol]", "EC2x for IKBKAP protein expression (concentration producing two times the amount of IKBKAP protein vs DMSO vehicle control)": "***** (≤0.005 μM is indicated by five stars (*****))", "MFI (maximum fold increase in IKBKAP protein abundance relative to the vehicle control)": "***** (>4.9 is indicated by five stars (*****))"}
{"compound": "N[C@@H](CCF)Cc1sc2c(NCc3cccs3)cc(Cl)nc2c1Br", "note": "[Compound 74, 2-[(2S)-2-amino-4-fluorobutyl]-3-bromo-5-chloro-N-[(thiophen-2-yl)methyl]thieno[3,2-b]pyridin-7-amine]", "EC2x for IKBKAP protein expression (concentration producing two times the amount of IKBKAP protein vs DMSO vehicle control)": "***** (≤0.005 μM is indicated by five stars (*****))", "MFI (maximum fold increase in IKBKAP protein abundance relative to the vehicle control)": "***** (>4.9 is indicated by five stars (*****))"}
{"compound": "Cc1c(NC[C@H](C)N)sc2c(NCc3cccs3)cc(Cl)nc12", "note": "[Compound 163, N^2-[(2S)-2-aminopropyl]-5-chloro-3-methyl-N^7-[(thiophen-2-yl)methyl]thieno[3,2-b]pyridine-2,7-diamine]", "EC2x for IKBKAP protein expression (concentration producing two times the amount of IKBKAP protein vs DMSO vehicle control)": "*** (between >0.02 μM and ≤0.5 μM is indicated by three stars (***))", "MFI (maximum fold increase in IKBKAP protein abundance relative to the vehicle control)": "**** (between >3.9 and ≤4.9 is indicated by four stars (****))"}
{"compound": "N[C@@H](CCO)Cc1sc2c(NCc3ccccc3F)cc(Cl)nc2c1Br", "note": "[Compound 100, (3S)-3-amino-4-(3-bromo-5-chloro-7-{[(2-fluorophenyl)methyl]amino}thieno[3,2-b]pyridin-2-yl)butan-1-ol]", "EC2x for IKBKAP protein expression (concentration producing two times the amount of IKBKAP protein vs DMSO vehicle control)": "***** (≤0.005 μM is indicated by five stars (*****))", "MFI (maximum fold increase in IKBKAP protein abundance relative to the vehicle control)": "***** (>4.9 is indicated by five stars (*****))"}
{"compound": "Cc1c(C[C@H](C)N)sc2c(NCc3ccco3)cc(C#N)nc12", "note": "[Compound 20, 2-[(2S)-2-aminopropyl]-7-{[(furan-2-yl)methyl]amino}-3-methylthieno[3,2-b]pyridine-5-carbonitrile]", "EC2x for IKBKAP protein expression (concentration producing two times the amount of IKBKAP protein vs DMSO vehicle control)": "***** (≤0.005 μM is indicated by five stars (*****))", "MFI (maximum fold increase in IKBKAP protein abundance relative to the vehicle control)": "***** (>4.9 is indicated by five stars (*****))"}
{"compound": "CC[C@H](N)Cc1sc2c(NCc3nccs3)cc(Cl)nc2c1C", "note": "[Compound 85, 2-[(2S)-2-aminobutyl]-5-chloro-3-methyl-N-[(1,3-thiazol-2-yl)methyl]thieno[3,2-b]pyridin-7-amine]", "EC2x for IKBKAP protein expression (concentration producing two times the amount of IKBKAP protein vs DMSO vehicle control)": "***** (≤0.005 μM is indicated by five stars (*****))", "MFI (maximum fold increase in IKBKAP protein abundance relative to the vehicle control)": "***** (>4.9 is indicated by five stars (*****))"}
{"compound": "C[C@H](N)Cc1sc2c(NCc3cccs3)cc(Cl)nc2c1Cl", "note": "[Compound 52, 2-[(2S)-2-aminopropyl]-3,5-dichloro-N-[(thiophen-2-yl)methyl]thieno[3,2-b]pyridin-7-amine]", "EC2x for IKBKAP protein expression (concentration producing two times the amount of IKBKAP protein vs DMSO vehicle control)": "***** (≤0.005 μM is indicated by five stars (*****))", "MFI (maximum fold increase in IKBKAP protein abundance relative to the vehicle control)": "***** (>4.9 is indicated by five stars (*****))"}
{"compound": "Cc1c([C@@H](N)C(C)C)sc2c(NCc3ccco3)cc(Cl)nc12", "note": "[Compound 30, 2-[(1S)-1-amino-2-methylpropyl]-5-chloro-N-[(furan-2-yl)methyl]-3-methylthieno[3,2-b]pyridin-7-amine]", "EC2x for IKBKAP protein expression (concentration producing two times the amount of IKBKAP protein vs DMSO vehicle control)": "* (An EC2x>1 μM is indicated by one star (*))", "MFI (maximum fold increase in IKBKAP protein abundance relative to the vehicle control)": "* (An MFI≤1.9 is indicated by one star (*))"}
{"compound": "Cc1c(C[C@H](C)N)sc2c(NCc3nccs3)cc(Cl)nc12", "note": "[Compound 57, 2-[(2S)-2-aminopropyl]-5-chloro-3-methyl-N-[(1,3-thiazol-2-yl)methyl]thieno[3,2-b]pyridin-7-amine]", "EC2x for IKBKAP protein expression (concentration producing two times the amount of IKBKAP protein vs DMSO vehicle control)": "***** (≤0.005 μM is indicated by five stars (*****))", "MFI (maximum fold increase in IKBKAP protein abundance relative to the vehicle control)": "***** (>4.9 is indicated by five stars (*****))"}
{"compound": "Cc1c(C[C@@H](N)C(=O)Nc2ccc(C#N)cc2)sc2c(NCc3ccco3)cc(Cl)nc12", "note": "[Compound 133, 3-(5-chloro-7-{[(furan-2-yl)methyl]amino}-3-methylthieno[3,2-b]pyridin-2-yl)-N-(4-cyanophenyl)-D-alaninamide]", "EC2x for IKBKAP protein expression (concentration producing two times the amount of IKBKAP protein vs DMSO vehicle control)": "***** (≤0.005 μM is indicated by five stars (*****))", "MFI (maximum fold increase in IKBKAP protein abundance relative to the vehicle control)": "***** (>4.9 is indicated by five stars (*****))"}
{"compound": "N[C@@H](CF)Cc1sc2c(NCc3cccs3)cc(Cl)nc2c1Cl", "note": "[Compound 84, 2-[(2R)-2-amino-3-fluoropropyl]-3,5-dichloro-N-[(thiophen-2-yl)methyl]thieno[3,2-b]pyridin-7-amine]", "EC2x for IKBKAP protein expression (concentration producing two times the amount of IKBKAP protein vs DMSO vehicle control)": "***** (≤0.005 μM is indicated by five stars (*****))", "MFI (maximum fold increase in IKBKAP protein abundance relative to the vehicle control)": "***** (>4.9 is indicated by five stars (*****))"}
{"compound": "2-[(2S)-2-amino-4-methylpentyl]-5-chloro-3-cyclopropyl-N-[(1,3-thiazol-2-yl)methyl]thieno[3,2-b]pyridin-7-amine [Compound 80]", "EC2x for IKBKAP protein expression (concentration producing two times the amount of IKBKAP protein vs DMSO vehicle control)": "*** (between >0.02 μM and ≤0.5 μM is indicated by three stars (***))", "MFI (maximum fold increase in IKBKAP protein abundance relative to the vehicle control)": "*** (between >2.9 and ≤3.9 is indicated by three stars (***))"}
{"compound": "CSC[C@H](N)Cc1sc2c(NCc3ccco3)cc(Cl)nc2c1Cl", "note": "[Compound 114, 2-[(2R)-2-amino-3-(methylsulfanyl)propyl]-3,5-dichloro-N-[(furan-2-yl)methyl]thieno[3,2-b]pyridin-7-amine]", "EC2x for IKBKAP protein expression (concentration producing two times the amount of IKBKAP protein vs DMSO vehicle control)": "***** (≤0.005 μM is indicated by five stars (*****))", "MFI (maximum fold increase in IKBKAP protein abundance relative to the vehicle control)": "***** (>4.9 is indicated by five stars (*****))"}
{"compound": "N[C@@H](CF)Cc1sc2c(NCc3cccs3)cc(Cl)nc2c1Br", "note": "[Compound 76, 2-[(2R)-2-amino-3-fluoropropyl]-3-bromo-5-chloro-N-[(thiophen-2-yl)methyl]thieno[3,2-b]pyridin-7-amine]", "EC2x for IKBKAP protein expression (concentration producing two times the amount of IKBKAP protein vs DMSO vehicle control)": "***** (≤0.005 μM is indicated by five stars (*****))", "MFI (maximum fold increase in IKBKAP protein abundance relative to the vehicle control)": "***** (>4.9 is indicated by five stars (*****))"}
{"compound": "C[C@H](N)C(=O)c1sc2c(NCc3nccs3)cc(Cl)nc2c1Br", "note": "[Compound 160, (2S)-2-amino-1-(3-bromo-5-chloro-7-{[(1,3-thiazol-2-yl)methyl]amino}thieno[3,2-b]pyridin-2-yl)propan-1-one]", "EC2x for IKBKAP protein expression (concentration producing two times the amount of IKBKAP protein vs DMSO vehicle control)": "*** (between >0.02 μM and ≤0.5 μM is indicated by three stars (***))", "MFI (maximum fold increase in IKBKAP protein abundance relative to the vehicle control)": "**** (between >3.9 and ≤4.9 is indicated by four stars (****))"}
{"compound": "CC[C@H](N)Cc1sc2c(NCc3cccs3)cc(Cl)nc2c1Br", "note": "[Compound 73, 2-[(2S)-2-aminobutyl]-3-bromo-5-chloro-N-[(thiophen-2-yl)methyl]thieno[3,2-b]pyridin-7-amine]", "EC2x for IKBKAP protein expression (concentration producing two times the amount of IKBKAP protein vs DMSO vehicle control)": "***** (≤0.005 μM is indicated by five stars (*****))", "MFI (maximum fold increase in IKBKAP protein abundance relative to the vehicle control)": "***** (>4.9 is indicated by five stars (*****))"}
{"compound": "N[C@@H](CF)Cc1sc2c(NCc3nccs3)cc(Cl)nc2c1Br", "note": "[Compound 70, 2-[(2R)-2-amino-3-fluoropropyl]-3-bromo-5-chloro-N-[(1,3-thiazol-2-yl)methyl]thieno[3,2-b]pyridin-7-amine]", "EC2x for IKBKAP protein expression (concentration producing two times the amount of IKBKAP protein vs DMSO vehicle control)": "***** (≤0.005 μM is indicated by five stars (*****))", "MFI (maximum fold increase in IKBKAP protein abundance relative to the vehicle control)": "***** (>4.9 is indicated by five stars (*****))"}
